How the values were obtained:
Assay type in all cases: in vivo, Sprague Dawley rat
[1] = test system: Sprague Dawley rats; assay: Rat intraplantar injection model, thermal pain sensitivity (Example 10)
Method: (§1) Male Sprague Dawley rats (n=56) were allocated into 7 groups of 8 animals per group. […] Each group was compared to the phosphate buffer (50-mM phosphate buffer with 50-mM sodium chloride at pH=7.4) treated group, which served as the control (Group 1).
(§2) Animals were administered 0.1 mL of test material by subcutaneous injection into the paw pad (Intraplantar injection) at time zero. Then, the animals were subsequently evaluated for their response to mechanical (von Frey filaments) and thermal stimuli, 15 and 90 minutes post-injection. The von Frey test was conducted prior to the thermal test, which followed immediately within minutes for each animal. In addition, clinical observation scoring of the animal's reaction to injection was conducted.
The sensitivity of animals to a thermal pain stimulus was assessed immediately following the von Frey test. The time until withdrawal of the right-injected leg from a heat source was measured, and the lower (faster) the time of response represents a greater sensitivity to the stimulus. The test was performed 15 and 90 minutes post-test item injection.

[2] = test system: Sprague Dawley rats; assay: Cardiovascular assessment by radiotelemetry following subcutaneous injection (Example 12)
Method: (§3) Clinical observations were performed at approximately 6 hours prior to dosing, at the completion of dosing and at approximately 4 hours postdosing.

[3] = test system: Sprague Dawley rats; assay: Rat intraplantar injection model, thermal pain sensitivity (Example 9); details: 1 μg/mL or 100 μg/mL; 15 minutes post-administration
Method: (§4) Male Sprague Dawley rats (n=112) were allocated into 14 groups of 8/group. The study was run in 2 cycles, on consecutive days, 7 groups per cycle. Each cycle was composed of a Saline group, PBS group, which served as the control, and also treprostinil at a dose of 100 μg/mL or 1 μg/mL.
(§5) Animals were administered 0.1 mL of test material by subcutaneous injection into the paw pad (Intraplantar injection) at time zero. Animals were subsequently evaluated for their response to mechanical (von Frey filaments) and thermal stimuli, 15 and 90 minutes post-injection. The von Frey test was conducted prior to the thermal test, which followed immediately within minutes for each animal. In addition, clinical observation scoring of the animal's reaction to injection was conducted. FIG. 16 schematically illustrates the study design.
The sensitivity of animals to a thermal pain stimulus was assessed immediately following the von Frey test. The time until withdrawal of the right-injected leg from a heat source was measured, and the lower (faster) the time of response represents a greater sensitivity to the stimulus. The test was performed 15 and 90 minutes post-Test Item injection.

[4] = test system: Sprague Dawley rats; assay: Rat intraplantar injection model, von Frey test (Example 9); details: 1 μg/mL or 100 μg/mL; 15 and 90 minutes post-injection
Method: as §4, §5
Mechanical pain sensitivity was tested using the von Frey test, which measures the withdrawal force threshold of the animals. The lower the force applied represents a greater sensitivity to the stimulus. The von Frey test was performed 15 and 90 minutes post-Test Item injection.

[5] = test system: Sprague Dawley rats; assay: Clinical observations following subcutaneous injection (Example 12); details: 0.1 and 0.3 mg/kg SC; some animals; approximately 4 hours postdosing
Method: as §3

[6] = test system: Sprague Dawley rats; assay: Rat intraplantar injection model, von Frey test (Example 10); details: 1 μg/mL or 100 μg/mL; 15 and 90 minutes post-injection
Method: as §1, §2
Mechanical pain sensitivity was tested using the von Frey test, which measures the withdrawal force threshold of the animals. The lower the force applied represents a greater sensitivity to the stimulus. The von Frey test was performed 15 and 90 minutes post-test item injection.

[7] = test system: Sprague Dawley rats; assay: Rat intraplantar injection model, clinical observation score (Example 9)
Method: as §4, §5
A Clinical observation score was assigned by assessing for redness, swelling and paw placement.

[8] = 0.1 mg/kg SC (first statement as printed)

Q: Which results are given for `CCCCC[C@H](O)CC[C@@H]1[C@H]2Cc3cccc(OCC(=O)O)c3C[C@H]2C[C@H]1O` [Treprostinil]?
A: thermal paw withdrawal time vs phosphate buffer treated group ([1]; 1 μg/mL or 100 μg/mL, 15 minutes post-administration): statistically significantly faster paw withdrawal time; sensitivity to heat stimulation vs vehicle (phosphate buffer) group ([1]; 100 μg/mL, 90 minutes post-injection): statistically significantly increased sensitivity; body temperature change ([2]; 0.000125 mg/kg or 0.00125 mg/kg SC): No significant changes; diastolic blood pressure change ([2]; 0.03 mg/kg SC): marginally lower; mean blood pressure change ([2]; 0.03 mg/kg SC): marginally lower; mean blood pressure, time of nadir ([2]; 0.03 mg/kg SC): 30 min; systolic blood pressure change ([2]; 0.03 mg/kg SC): marginally lower; body temperature changes resolved by ([2]; 0.1 mg/kg SC): approximately 3 hours; diastolic blood pressure lowering persisted through ([2]; 0.1 mg/kg SC): 90 min; diastolic blood pressure, time of nadir ([2]; 0.1 mg/kg SC): 30 min; mean blood pressure lowering persisted through ([2]; 0.1 mg/kg SC): 90 min; mean blood pressure, time of nadir ([2]; 0.1 mg/kg SC): 30 min; systolic blood pressure lowering persisted through ([2]; 0.1 mg/kg SC): 90 min; systolic blood pressure, time of nadir ([2]; 0.1 mg/kg SC): 30 min; body temperature change [2, 8]: Marginally lower; body temperature change persisted through [2, 8]: approximately 3 hours; body temperature changes resolved by ([2]; 0.3 mg/kg SC): ~4 h; diastolic blood pressure lowering persisted through ([2]; 0.3 mg/kg SC): 180 min; diastolic blood pressure, time of nadir ([2]; 0.3 mg/kg SC): 20 min; mean blood pressure lowering persisted through ([2]; 0.3 mg/kg SC): 180 min; mean blood pressure, time of nadir ([2]; 0.3 mg/kg SC): 20 min; systolic blood pressure lowering persisted through ([2]; 0.3 mg/kg SC): 120 min; systolic blood pressure, time of nadir ([2]; 0.3 mg/kg SC): 20 min; pulse pressure change ([2]; 0.3 mg/kg SC, from 20 to 40 minutes postdosing): Marginally lower; body temperature change ([2]; 0.1 and 0.3 mg/kg SC): Significantly lowered; diastolic blood pressure change ([2]; 0.1 and 0.3 mg/kg SC): Significantly lower; diastolic blood pressure, earliest time point of lowering ([2]; 0.1 and 0.3 mg/kg SC): 10 min; mean blood pressure change ([2]; 0.1 and 0.3 mg/kg SC): Significantly lower; mean blood pressure, earliest time point of lowering ([2]; 0.1 and 0.3 mg/kg SC): 10 min; systolic blood pressure change ([2]; 0.1 and 0.3 mg/kg SC): Significantly lower; systolic blood pressure, earliest time point of lowering ([2]; 0.1 and 0.3 mg/kg SC): 10 min; dose resulting in significantly lower body temperature ([2]; single SC injection): ≥ 0.030 mg/kg; dose resulting in significantly lower systolic, diastolic, mean arterial blood pressure ([2]; single SC injection): ≥ 0.1 mg/kg; heart rate change ([2]; single SC injection, all doses): Higher heart rates; time by which heart rate changes resolved / recovered postdosing ([2]; single SC injection, all groups): approximately 5 hours; diastolic blood pressure change ([2]; ≤0.030 mg/kg SC): No meaningful changes; mean blood pressure change ([2]; ≤0.030 mg/kg SC): No meaningful changes; systolic blood pressure change ([2]; ≤0.030 mg/kg SC): No meaningful changes; thermal paw withdrawal time vs PBS treated group [3]: statistically significantly faster paw withdrawal time; von Frey withdrawal force threshold vs PBS-treated group [4]: reduced withdrawal force threshold; clinical observations [5]: flushed extremities; von Frey withdrawal force threshold vs phosphate buffer group [6]: reduced withdrawal force threshold; clinical score ([7]; 1 μg/mL (cycle 2), both time points (15 and 90 min)): non-zero; clinical score vs PBS treated group ([7]; 1 μg/mL or 100 μg/mL, 15 and 90 minutes post-injection): statistically significant increase in the clinical score; clinical score ([7]; 100 μg/mL (cycle 1), 15 min): non-zero; clinical score vs PBS group ([7]; 100 μg/mL (cycle 1), 90 minutes post-injection): non-zero
